Several values for one entry are separate records, joined by “and”; a condition that tells them apart may be missing. Equal entries are not always repeated. Entries after “also recorded” stand apart in the source; their conditions may differ.
How the values were obtained:
Type in all cases: biochemical
several glycosidases = assay: Glycosidase inhibition, whole Table 3 panel; conditions: Table 3 assay conditions
Protocol: (§1) All enzymes and para-nitrophenyl substrates were purchased from Sigma. Enzymes were assayed at 27 °C in citric acid (0.1 M)/disodium hydrogen phosphate (0.2 M) buffers at the optimum pH for the enzyme. The incubation mixture consisted of […] of 1 mg/mL aqueous solution of extract and […] of the appropriate […] para-nitrophenyl substrate made up in buffer at the optimum pH for the enzyme. The reactions were stopped by addition of […] 0.4 M glycine (pH 10.4) during the exponential phase of the reaction, which had been determined at the beginning using uninhibited assays in which water replaced the inhibitor. Final absorbances were read at 405 nm using a Versamax microplate reader (Molecular Devices, Wokingham, UK). Assays were carried out in triplicate, and the values given are means of the three replicates per assay. All reactions were run in water.

[1] = tested on: α-D-glucosidase (Bacillus); assay: Glycosidase inhibition (Table 3 panel); conditions: 1 mg/mL aqueous solution; run in water
Protocol: as §1

[2] = tested on: T1, α-D-mannosidase (Jack bean); assay: Glycosidase inhibition (Table 3 panel); conditions: 1 mg/mL aqueous solution; run in water
T1 construct: purchased Sigma-Aldrich; host or cells: Jack bean
Protocol: as §1

[3] = tested on: N-acetyl-β-D-glucosaminidase (bovine kidney); assay: Glycosidase inhibition (Table 3 panel); conditions: 1 mg/mL aqueous solution; run in water
Protocol: as §1

[4] = tested on: β-D-glucosidase (human lysosome); assay: Glycosidase inhibition (Table 2 panel); conditions: at 100 μM
[5] = tested on: α-D-glucosidase (rat intestine); assay: Glycosidase inhibition (Table 3 panel); conditions: 1 mg/mL aqueous solution; run in water
Protocol: as §1

[6] = tested on: N-acetyl-β-D-hexosaminidase (rat intestine); assay: Glycosidase inhibition (Table 3 panel); conditions: 1 mg/mL aqueous solution; run in water
Protocol: as §1

[7] = tested on: glycosidases in the panel; assay: Glycosidase inhibition, whole Table 2 panel
Source text: The enzymes α-D-glucosidase (yeast), β-D-glucosidases (almond, bovine liver), α-D-galactosidase (coffee beans), β-D-galactosidase (bovine liver), α-D-mannosidase (Jack bean), β-D-mannosidase (snail), α-L-rhamnosidase (P. decumbens), α-L-fucosidase (bovine kidney), trehalase (porcine kidney), β-D-glucuronidases (E. coli, bovine liver), amyloglucosidase (A. niger), para-nitrophenyl glycosides, and various disaccharides were purchased from Sigma-Aldrich Co (St. Louis, MO, USA).
Brush border membranes were prepared from the rat small intestine according to the method of Kessler et al., and were assayed at pH 6.8 for rat intestinal maltase using maltose. For rat intestinal maltase, porcine kidney trehalase, and A. niger amyloglucosidase activities, the reaction mixture contained maltose ([…]) and the appropriate amount of enzyme, and the incubations were performed for 10–30 min at 37 °C. The reaction was stopped by heating at 100 °C for 3 min. After centrifugation (600 g; 10 min), the resulting reaction mixture was added to the Glucose CII-test Wako (Wako Pure Chemical Ind., Osaka, Japan). The absorbance at 505 nm was measured to determine the amount of the released D-glucose. Other glycosidase activities were determined using an appropriate para-nitrophenyl glycoside as substrate at the optimum pH of each enzyme. The reaction mixture contained the substrate ([…]) and the appropriate amount of enzyme. The reaction was stopped by the addition of Na2CO3 ([…]). The released para-nitrophenol was measured spectrometrically at 400 nm. All reactions were run in […].

N[C@@H](Cc1ccc(B(O)O)cc1)C(=O)O [BPA, 4-borono-L-phenylalanine, reference compound]
Inhibition over the glycosidases of Table 3 (several glycosidases): < 30% | Percentage inhibition α-D-Glucosidase Bacillus [1]: 19.9% | Percentage inhibition α-D-Mannosidase Jack Bean [2]: 0.6% | Percentage inhibition N-Acetyl-β-D-glucosaminidase Bovine Kidney [3]: 6.7%

N[C@@H](Cc1ccc(B(O)O)cc1)C(=O)O [^10B-BPA, reference compound]
Inhibition over the glycosidases of Table 3 (several glycosidases): < 30% | Percentage inhibition α-D-Glucosidase Bacillus [1]: 19.5% | Percentage inhibition α-D-Mannosidase Jack Bean [2]: −0.7% | Percentage inhibition N-Acetyl-β-D-glucosaminidase Bovine Kidney [3]: 6.3%

CC1(C)O[C@H]2O[C@H]3[C@@H]([C@H]2O1)N(Cc1cccc(B2OC(C)(C)C(C)(C)O2)c1)C[C@H]3O [meta 2, N-(3-Methylphenylboronic acid pinacol ester)-3,6-dideoxy-3,6-imino-1,2-O-isopropylidene-α-D-gulofuranose]
inhibition % β-D-Glucosidase Human Lysosome [4]: ^cNI ^d(0%) | Percentage inhibition α-D-Glucosidase Rat Intestine [5]: 16.8% | Percentage inhibition N-Acetyl-β-D-Hexosaminidase Rat Intestine [6]: 11.5%

OB(O)c1cccc(CN2C[C@@H](O)[C@H]3OC(O)[C@H](O)[C@H]32)c1 (stereo partly drawn) [meta 3, N-(3-Methylphenylboronic acid)-3,6-dideoxy-3,6-imino-D-gulofuranose]
inhibition % β-D-Glucosidase Human Lysosome [4]: ^cNI ^d(6.6%) | Percentage inhibition α-D-Glucosidase Rat Intestine [5]: 12.1% and 8.9% | Percentage inhibition N-Acetyl-β-D-Hexosaminidase Rat Intestine [6]: 8.7%

OC[C@H](O)[C@@H]1[C@H](O)[C@H](O)CN1Cc1cccc(B(O)O)c1 [meta 4, N-(3-Methylphenylboronic acid)-1,4-dideoxy-1,4-imino-L-gulitol]
inhibition % β-D-Glucosidase Human Lysosome [4]: ^cNI ^d(13.6%) | Percentage inhibition α-D-Glucosidase Rat Intestine [5]: 41.1% | Percentage inhibition N-Acetyl-β-D-Hexosaminidase Rat Intestine [6]: −2.2%

CC1(C)O[C@H]2O[C@H]3[C@@H]([C@H]2O1)N(Cc1cccc(B(O)O)c1)C[C@H]3O [meta 5, N-(3-Methylphenylboronic acid)-3,6-dideoxy-3,6-imino-1,2-O-isopropylidene-α-D-glucofuranose]
inhibition % β-D-Glucosidase Human Lysosome [4]: ^cNI ^d(0%) | Inhibitory activity over the glycosidase panel, in words [7]: abrogates inhibitory activity | Percentage inhibition α-D-Glucosidase Rat Intestine [5]: 11.6% | Percentage inhibition N-Acetyl-β-D-Hexosaminidase Rat Intestine [6]: 5%

CC1(C)O[C@H]2O[C@H]3[C@@H]([C@H]2O1)N(Cc1cccc(O)c1)C[C@H]3O [meta 6]
inhibition % β-D-Glucosidase Human Lysosome [4]: ^cNI ^d(0%) | Inhibitory activity over the glycosidase panel, in words [7]: abrogates inhibitory activity | Percentage inhibition α-D-Glucosidase Rat Intestine [5]: 4.8% | Percentage inhibition N-Acetyl-β-D-Hexosaminidase Rat Intestine [6]: −0.7%

CC1(C)O[C@H]2O[C@H]3[C@@H]([C@H]2O1)N(Cc1ccccc1B1OC(C)(C)C(C)(C)O1)C[C@H]3O [ortho 2, N-(2-Methylphenylboronic acid pinacol ester)-3,6-dideoxy-3,6-imino-1,2-O-isopropylidene-α-D-gulofuranose]
inhibition % β-D-Glucosidase Human Lysosome [4]: ^cNI ^d(5.6%) | Percentage inhibition α-D-Glucosidase Rat Intestine [5]: −6.7% | Percentage inhibition N-Acetyl-β-D-Hexosaminidase Rat Intestine [6]: 13.8%

OB(O)c1ccccc1CN1C[C@@H](O)[C@H]2OC(O)[C@H](O)[C@H]21 (stereo partly drawn) [ortho 3, N-(2-Methylphenylboronic acid)-3,6-dideoxy-3,6-imino-D-gulofuranose]
inhibition % β-D-Glucosidase Human Lysosome [4]: ^cNI ^d(0%) | Percentage inhibition α-D-Glucosidase Rat Intestine [5]: −1.4% | Percentage inhibition N-Acetyl-β-D-Hexosaminidase Rat Intestine [6]: 19.2%

OC[C@H](O)[C@@H]1[C@H](O)[C@H](O)CN1Cc1ccccc1B(O)O [ortho 4, N-(2-Methylphenylboronic acid)-1,4-dideoxy-1,4-imino-L-gulitol]
inhibition % β-D-Glucosidase Human Lysosome [4]: ^cNI ^d(0%) | Percentage inhibition α-D-Glucosidase Rat Intestine [5]: 17.4% | Percentage inhibition N-Acetyl-β-D-Hexosaminidase Rat Intestine [6]: −0.2%

CC1(C)O[C@H]2O[C@H]3[C@@H]([C@H]2O1)N(Cc1ccccc1B(O)O)C[C@H]3O [ortho 5]
inhibition % β-D-Glucosidase Human Lysosome [4]: ^cNI ^d(3.5%) | Inhibitory activity over the glycosidase panel, in words [7]: abrogates inhibitory activity | Percentage inhibition α-D-Glucosidase Rat Intestine [5]: 4.2% | Percentage inhibition N-Acetyl-β-D-Hexosaminidase Rat Intestine [6]: 5.2%

Borocaptate sodium [BSH, reference compound]
Inhibition over the glycosidases of Table 3 (several glycosidases): 31.6–65.9% | Percentage inhibition α-D-Glucosidase Bacillus [1]: 48.1% | Percentage inhibition α-D-Mannosidase Jack Bean [2]: −18.7% | Percentage inhibition N-Acetyl-β-D-glucosaminidase Bovine Kidney [3]: 37.1%

N-(3-Hydroxyphenyl)-1,4-dideoxy-1,4-imino-L-gulitol [meta 7]
inhibition % β-D-Glucosidase Human Lysosome [4]: ^cNI ^d(9.9%) | Inhibitory activity over the glycosidase panel, in words [7]: complete abrogation of inhibition; also recorded: abrogation of biological activity | Percentage inhibition α-D-Glucosidase Rat Intestine [5]: −10.7% | Percentage inhibition N-Acetyl-β-D-Hexosaminidase Rat Intestine [6]: −2.5%

From publication PMC12655172, “Borylated 5-Membered Ring Iminosugars: Synthesis and Biological Evaluation for Glycosidase Inhibition and Anticancer Properties for Application in Boron Neutron Capture Therapy (BNCT)—Part 2” (Pharmaceuticals, 2025)
